This assay concerns the target T1, CRTH2 (Homo sapiens, UniProt Q9Y5Y4).
T1 sequence (Q9Y5Y4 1-395): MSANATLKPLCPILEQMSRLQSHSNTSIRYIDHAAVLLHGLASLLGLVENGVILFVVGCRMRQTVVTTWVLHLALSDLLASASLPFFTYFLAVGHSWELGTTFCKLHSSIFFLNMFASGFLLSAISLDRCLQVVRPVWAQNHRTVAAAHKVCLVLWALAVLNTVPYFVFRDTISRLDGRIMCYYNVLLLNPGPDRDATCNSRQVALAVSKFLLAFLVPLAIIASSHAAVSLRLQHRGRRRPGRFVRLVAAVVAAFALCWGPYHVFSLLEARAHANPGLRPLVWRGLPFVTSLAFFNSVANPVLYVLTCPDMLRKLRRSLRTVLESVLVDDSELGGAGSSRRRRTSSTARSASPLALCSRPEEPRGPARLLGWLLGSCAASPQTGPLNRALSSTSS
Nature of the assay: Radioligand binding Scintillation Proximity Assay ([3H]PGD2, hCRTH2-CHO cell membranes). Details: host or cells: CHO cells. As to conditions: 1.5 nM [3H]PGD2, hCRTH2-CHO cell membranes, SPA. As to the method:
Adherent CHO cells expressing hCRTH2 (Euroscreen, Belgium) were cultured in 225 cm^2 cell culture flasks (Corning, USA) in 30 ml of medium. After two rinses of phosphate buffered saline (PBS), cells were harvested in 10 ml of PBS containing 1 mM EDTA, centrifuged at 500×g for 5 min at 4° C. and frozen at −80° C. The pellet was re-suspended in 50 mM Tris-HCl, pH 7.4, 2 mM EDTA, 250 mM Sucrose, containing protease inhibitor cocktail tablets, (Complete EDTA-free, Roche, Germany) and incubated 30 min at 4° C. Cells were disrupted by nitrogen cavitation (Parr Instruments, USA) at 4° C. (800 p.s.i. for 30 min), and centrifuged at 500×g for 10 min at 4° C. Pellet containing nuclei and cellular debris was discarded and supernatant was centrifuged 60 min at 4° C. at 45000×g. Membrane pellet was re-suspended in storage buffer (10 mM HEPES/KOH pH 7.4, 1 mM EDTA, 250 mM sucrose, protease inhibitor cocktail tablets) using Dounce homogenization and frozen in liquid nitrogen, and stored at −80° C.
The inhibitory activity can be investigated by a radioligand binding Scintillation Proximity Assay (SPA) (Sawyer et al., Br. J. Pharmocol 2002, 137, 1163-72). The SPA radioligand binding assay was performed at room temperature in binding buffer (10 mM HEPES/KOH pH 7.4, 10 mM MnCl2, with protease inhibitor cocktail tablets), containing 1.5 nM [^3H]PGD2 (Perkin Elmer), 10-50 μg/ml of hCRTH2-CHO cell membrane protein and 2 mg/ml of Wheat-germ agglutinin Sintillation Proximity Assay beads (RPNQ0001, GE-Healthcare) in a final volume of 100 μl in 96 well plates (Corning, USA). Non-specific binding was determined in the presence of 10 μM PGD2 (Cayman, USA). Competing Compounds of Formula (I) were diluted in dimethylsulphoxide so that the total volume of dimethylsulfoxide was kept constant at 1% dimethylsulphoxide (Me2SO). Serial dilutions of 100 μM to 100 pM were prepared and 10 μl each of the compounds of Formula (I) stock solutions were added to the binding assay reagents and incubated for 90 min with agitation at room temperature. Binding activity was determined by using a 1450 Micro-beta scintillation counter (Wallac, UK).
By IC50 is commonly meant the point on the concentration scale where inhibition reaches its midpoint. The compound `CCCS(=O)(=O)c1ccc(C)c(C#Cc2cc(Cl)ccc2OC(CC(C)C)C(=O)O)c1` (centres unmarked) [Example 172, 2-(4-chloro-2-{[2-methyl-5-(propylsulfonyl)phenyl]ethynyl}phenoxy)-4-methylpentanoic acid] showed an IC50 of 0.06 µM.

Regarding `CCCS(=O)(=O)c1cccc(C#Cc2c(Cl)cccc2OCC(=O)O)c1` [Example 74, (3-chloro-2-{[3-(propylsulfonyl)phenyl]ethynyl}phenoxy)acetic acid], the IC50 was 0.07 µM.

As for `Cc1ccc(S(=O)(=O)N2CCN(C)CC2)cc1C#Cc1cc(Cl)ccc1OCC(=O)O` [Example 112, [4-chloro-2-({2-methyl-5-[(4-methylpiperazin-1-yl)sulfonyl]phenyl}ethynyl)phenoxy]acetic acid], the IC50 is 0.027 µM.

On to `O=C(O)COc1ccc(Cl)cc1C#Cc1ccc(NC(=O)c2ccc(C(F)(F)F)cc2)cc1` [Example 150, {4-chloro-2-[(4-{[4-(trifluoromethyl)benzoyl]amino}phenyl)ethynyl]phenoxy}acetic acid], for which the IC50 was determined as 0.267 µM.

On to `COc1ccc(-c2ccc(C#Cc3cc(Cl)ccc3OCC(=O)O)cc2S(C)(=O)=O)cc1` [Example 141, (4-chloro-2-{[4′-methoxy-2-(methylsulfonyl)biphenyl-4-yl]ethynyl}phenoxy)acetic acid], for which the IC50 worked out at 0.008 µM.

Take `O=C(O)COc1ccc(Cl)cc1C#Cc1cccc(S(=O)(=O)CCCO)c1` [Example 19, [4-chloro-2-({3-[(3-hydroxypropyl)sulfonyl]phenyl}ethynyl)phenoxy]acetic acid]: the IC50 was 0.036 µM.

Regarding `CCCS(=O)(=O)c1cccc(C#Cc2c(OCC(=O)O)ccc3ccccc23)c1` [Example 148, [(1-{[3-(propylsulfonyl)phenyl]ethynyl}-2-naphthyl)oxy]acetic acid], the IC50 is 0.056 µM.

As to `CCC[S+]([O-])c1ccc(C)c(C#Cc2cc(Cl)ccc2OCC(=O)O)c1` (centres unmarked) [Example 149, (4-chloro-2-{[2-methyl-5-(propylsulfinyl)phenyl]ethynyl}phenoxy)acetic acid], the IC50 came to 0.011 µM.

`CCS(=O)(=O)c1ccc(C)c(C#Cc2cc(C#N)ccc2OCC(=O)O)c1` [Example 63, (4-cyano-2-{[5-(ethylsulfonyl)-2-methylphenyl]ethynyl}phenoxy)acetic acid] gave an IC50 of 0.033 µM.

Compound `O=C(O)COc1ccc(Cl)cc1C#Cc1ccccc1` [Example 1, [4-chloro-2-(phenylethynyl)phenoxy]acetic acid] had an IC50 of 0.076 µM.

Consider `CCCC(Oc1ccc(Cl)cc1C#Cc1cc(S(=O)(=O)CCC)ccc1C)C(=O)O` (centres unmarked) [Example 171, 2-(4-chloro-2-{[2-methyl-5-(propylsulfonyl)phenyl]ethynyl}phenoxy)pentanoic acid], for which the IC50 was found to be 0.066 µM.

Compound `CCCCCCc1ccncc1C#Cc1cc(Cl)ccc1OCC(=O)O` [Example 29, {4-chloro-2-[(4-hexylpyridin-3-yl)ethynyl]phenoxy}acetic acid] showed an IC50 of 0.051 µM.

`Cc1ccc(S(=O)(=O)N2CCC2)cc1C#Cc1cc(Cl)ccc1OCC(=O)O` [Example 123, (2-{[5-(azetidin-1-ylsulfonyl)-2-methylphenyl]ethynyl}-4-chlorophenoxy)acetic acid]: the IC50 was 0.005 µM.

Compound `COC1c2ccc(C#Cc3cc(Cl)ccc3OCC(=O)O)cc2S(=O)(=O)C1(C)C` (centres unmarked) [Example 161, {4-chloro-2-[(3-methoxy-2,2-dimethyl-1,1-dioxido-2,3-dihydro-1-benzothien-6-yl)ethynyl]phenoxy}acetic acid] gave an IC50 of 0.024 µM.

In turn, `O=C(O)COc1ccc(Cl)cc1C#Cc1cc(CO)ccc1F` [Example 25, (4-chloro-2-{[2-fluoro-5-(hydroxymethyl)phenyl]ethynyl}phenoxy)acetic acid] displayed an IC50 of 0.089 µM.

As for `CCCS(=O)(=O)c1cccc(C#Cc2cc(-c3cnn(C)c3)ccc2OCC(=O)O)c1` [Example 135, (4-(1-methyl-1H-pyrazol-4-yl)-2-{[3-(propylsulfonyl)phenyl]ethynyl}phenoxy)acetic acid], the IC50 is 0.53 µM.

Compound `CCC(C)NS(=O)(=O)c1ccc(C)c(C#Cc2cc(Cl)ccc2OCC(=O)O)c1` (centres unmarked) [Example 114, [2-({5-[(sec-butylamino)sulfonyl]-2-methylphenyl}ethynyl)-4-chlorophenoxy]acetic acid] had an IC50 of 0.003 µM.

Turning to `CCCS(=O)(=O)c1cccc(C#Cc2cc(F)ccc2OCC(=O)O)c1` [Example 99, (4-fluoro-2-{[3-(propylsulfonyl)phenyl]ethynyl}phenoxy)acetic acid], the IC50 was 0.079 µM.

In turn, `O=C(O)COc1ccc(Cl)cc1C#Cc1cc(S(=O)(=O)C(F)(F)F)ccc1Cl` [Example 130, [4-chloro-2-({2-chloro-5-[(trifluoromethyl)sulfonyl]phenyl}ethynyl)phenoxy]acetic acid] had an IC50 of 0.009 µM.

`Cc1ccc(S(=O)(=O)N(C)C2CCCC2)cc1C#Cc1cc(Cl)ccc1OCC(=O)O` [Example 121, {4-chloro-2-[(5-{[cyclopentyl(methyl)amino]sulfonyl}-2-methylphenyl)ethynyl]phenoxy}acetic acid] came in with an IC50 of 0.008 µM.

For `CCCS(=O)(=O)c1cccc(C#Cc2cc(Cl)cnc2OCC(=O)O)c1` [Example 128, [(5-chloro-3-{[3-(propylsulfonyl)phenyl]ethynyl}pyridin-2-yl)oxy]acetic acid], the IC50 came to 0.063 µM.

As for `CCCS(=O)(=O)c1cccc(C#Cc2nc(C)ccc2OCC(=O)O)c1` [Example 66, [(6-methyl-2-{[3-(propylsulfonyl)phenyl]ethynyl}pyridin-3-yl)oxy]acetic acid], the IC50 stood at 0.193 µM.

As for `O=C(O)COc1ccc(Cl)cc1C#Cc1ccc(C(=O)N2CCOCC2)cc1` [Example 124, (4-chloro-2-{[4-(morpholin-4-ylcarbonyl)phenyl]ethynyl}phenoxy)acetic acid], the IC50 is 0.106 µM.

With `N#Cc1ccc(OCC(=O)O)c(C#Cc2ccccc2Cl)c1` [Example 23, {2-[(2-chlorophenyl)ethynyl]-4-cyanophenoxy}acetic acid], the IC50 was 0.03 µM.

`CS(=O)(=O)c1cncc(C#Cc2cc(C#N)ccc2OCC(=O)O)c1` [Example 69, (4-cyano-2-{[5-(methylsulfonyl)pyridin-3-yl}ethynyl]phenoxy)acetic acid]: the IC50 is 0.186 µM.

With `O=C(O)COc1ccc(Cl)cc1C#Cc1cccc(C(F)(F)F)c1` [Example 7, (4-chloro-2-{[3-(trifluoromethyl)phenyl]ethynyl}phenoxy)acetic acid], the IC50 is 0.111 µM.

The compound `Cc1ccc(NS(C)(=O)=O)cc1C#Cc1cc(Cl)ccc1OCC(=O)O` [Example 137, [4-chloro-2-({2-methyl-5-[(methylsulfonyl)amino]phenyl}ethynyl)phenoxy]acetic acid] had an IC50 of 0.07 µM.

With `CN(C)C(=O)c1ccc(C#Cc2cc(Cl)ccc2OCC(=O)O)cc1` [Example 125, [4-chloro-2-({4-[(dimethylamino)carbonyl]phenyl}ethynyl)phenoxy]acetic acid], the IC50 was 0.057 µM.

Compound `Cc1ccc(S(=O)(=O)N2CCOCC2)cc1C#Cc1cc(Cl)ccc1OCC(=O)O` [Example 82, (4-chloro-2-{[2-methyl-5-(morpholin-4-ylsulfonyl)phenyl]ethynyl}phenoxy)acetic acid] registered an IC50 of 0.005 µM.

Consider `Cc1ccc(S(=O)(=O)N2CCCCC2)cc1C#Cc1cc(Cl)ccc1OCC(=O)O` [Example 88, (4-chloro-2-{[2-methyl-5-(piperidin-1-ylsulfonyl)phenyl]ethynyl}phenoxy)acetic acid], for which the IC50 was 0.007 µM.

Consider `CS(=O)(=O)c1cccc(C#Cc2cc(Cl)ccc2OCC(=O)O)c1` [Example 18, (4-chloro-2-{[3-(methylsulfonyl)phenyl]ethynyl}phenoxy)acetic acid], for which the IC50 amounted to 0.019 µM.

As to `CCCS(=O)(=O)c1ccc(F)c(C#Cc2cc(Cl)cnc2OCC(=O)O)c1` [Example 129, [(5-chloro-3-{[2-fluoro-5-(propylsulfonyl)phenyl]ethynyl}pyridin-2-yl)oxy]acetic acid], the IC50 is 0.01 µM.
